# According to patent US6700013B2, “Tricyclic fused heterocycle compounds, process for preparing the same and use thereof” (Nippon Suisan Kaisha, Ltd., priority 1999, dated 2004):
# Columns and labels:
# [1] = tested on: pig tracheal smooth muscles; assay: Dilating action on contraction of tracheal smooth muscles (high K+ contraction, Magnus tube); conditions: Sus scrofa, 2 h; K+ contraction (72.7 mM); test substance final concentration 10 μM; two hours after addition; tension before addition = 100%; read-out: Relative Contraction Force (%)
# Text: With the use of pig tracheal muscles, the action of the compounds of the present invention on contraction of tracheal muscles has been investigated. The method refers to “Smooth Muscle Manual” (published by Bun'eido Publishing Co.), pp. 125-137. The trachea cartilage mucous membrane and submucous tissue of a pig trachea were removed to prepare a specimen of tracheal smooth muscles having a major diameter of about 10 mm and a minor diameter of about 1.5 mm. This specimen was suspended in a Magnus tube which was aerated with a mixed gas of 95% of oxygen and 5% of carbon dioxide and contained nutrient solution at 37° C. and a load of 0.8 g was applied to this specimen, and after the tension of the specimen was stabilized, the nutrient solution was replaced with a high concentration K^+ solution (72.7 mM) to provoke K^+ contraction. The procedure of replacing the solution in the Magnus tube with the nutrient solution to wash the solution and provoking K^+ contraction with the high concentration K^+ solution was repeated again until the contraction force became constant. When the tension of the K^+ contraction became constant, each of the compounds described in Table 19 (the structural formula of the Comparative Example being described in the right side of the compound of the above described Example 180) was added to the high concentration K^+ solution as the test substance to measure the change in tension. The test substance was dissolved in dimethyl sulfoxide at a predetermined concentration and added to the high concentration K^+ solution in such a manner that the final concentration came to 10 μM. The trachea cartilage mucous membrane and submucous tissue of a pig trachea were removed to prepare a specimen of tracheal smooth muscles having a major diameter of about 10 mm and a minor diameter of about 1.5 mm. This specimen was suspended in a Magnus tube which was aerated with a mixed gas of 95% of oxygen and 5% of carbon dioxide and contained nutrient solution at 37° C. and a load of 0.8 g was applied to this specimen, and after the tension of the specimen was stabilized, the nutrient solution was replaced with a high concentration K+ solution (72.7 mM) to provoke K+ contraction. The procedure of replacing the solution in the Magnus tube with the nutrient solution to wash the solution and provoking K+ contraction with the high concentration K+ solution was repeated again until the contraction force became constant. When the tension of the K+ contraction became constant, each of the compounds described in Table 19 (the structural formula of the Comparative Example being described in the right side of the compound of the above described Example 180) was added to the high concentration K+ solution as the test substance to measure the change in tension. The test substance was dissolved in dimethyl sulfoxide at a predetermined concentration and added to the high concentration K+ solution in such a manner that the final concentration came to […]. Further, the final concentration of dimethyl sulfoxide added was made 0.3% or less. The change in tension was led to a strain pressure amplifier (“AP-621G3”, manufactured by Nippon Koden Kogyo) through a FD pickup transducer (“TB-611T”, manufactured by Nippon Koden Kogyo) and recorded on a recorder (“R-64V”, manufactured by Rika Electric). When the tension before replacement with the high concentration K+ solution was regarded as 0% and the last tension which was generated by the high concentration K+ solution before the addition of a test substance was regarded as 100%, the contraction force of the tracheal smooth muscle two hours after addition of a test substance was shown as relative percentage. […]
# [2] = tested on: actively sensitized guinea pigs; assay: Inhibition of immediate (IAR) and late (LAR) asthmatic response, specific airway resistance (sRaw); assay type: in vivo, guinea pig; conditions: orally 10 mg/kg one hour before OVA challenge
# Experimental: It is reported [Pepys, J. and Hutchcroft, B. J., Bronchial provocation tests in etiologic diagnosis and Analysis of asthma, Am. Rev. Respir. Dis., 112, 829-859 (1975)] that when asthmatic patients are allowed to inhale an antigen, immediate asthmatic response (hereinafter referred to as “IAR”) whose peak is 15 to 30 minutes after inhalation is provoked and recovery from this response is within two hours; however, in 60% of the asthmatic patients late asthmatic response (hereinafter referred to as “LAR”) appears 4 to 12 hours after the inhalation of the antigen. […] On the other hand, it is known that when the guinea pigs actively sensitized with an antigen are allowed to inhale the antigen again, biphasic airway responses are caused. Accordingly, as the animal model line of IAR and LAR which are recognized in the above described asthmatic patients, the asthmatic model using guinea pigs is widely used in the evaluation of drugs for asthma and the like. […]
# The specific airway resistance (hereinafter referred to as “sRaw”) was measured, 1 minute, 10 minutes and 30 minutes after challenge and furthermore, 1 hour, 2 hours, 3 hours, 4 hours, 5 hours, 6 hours, 7 hours, 8 hours and 24 hours, each time for the duration of 1 minute with the use of airway resistance measuring equipment (“Pulmos-1”, M.I.P.S., Japan). […]
# [3] = tested on: actively sensitized guinea pigs; assay: Number of inflammatory cells in bronchoalveolar lavage fluid after antigen challenge; assay type: in vivo, guinea pig; conditions: orally 10 mg/kg one hour before OVA challenge
# Experimental: It is reported [Pepys, J. and Hutchcroft, B. J., Bronchial provocation tests in etiologic diagnosis and Analysis of asthma, Am. Rev. Respir. Dis., 112, 829-859 (1975)] that when asthmatic patients are allowed to inhale an antigen, immediate asthmatic response (hereinafter referred to as “IAR”) whose peak is 15 to 30 minutes after inhalation is provoked and recovery from this response is within two hours; however, in 60% of the asthmatic patients late asthmatic response (hereinafter referred to as “LAR”) appears 4 to 12 hours after the inhalation of the antigen. […] On the other hand, it is known that when the guinea pigs actively sensitized with an antigen are allowed to inhale the antigen again, biphasic airway responses are caused. Accordingly, as the animal model line of IAR and LAR which are recognized in the above described asthmatic patients, the asthmatic model using guinea pigs is widely used in the evaluation of drugs for asthma and the like. Furthermore, it is known that in the IAR and LAR model of guinea pigs, when actively sensitized guinea pigs are exposed to an antigen, infiltration of inflammatory cells into the airway occurs together with the biphasic airway contraction to cause various inflammatory disorders to airway tissues thereby. Therefore, the number of inflammatory cells in the bronchoalveolar lavage fluid is widely used as the index for the infiltration of inflammatory cells into the airway. Each of the above described actions in the IAR and LAR model of guinea pigs was examined with the compounds of the present invention.
# Guinea pigs were allowed to inhale a 1% ovalbumin (“OVA”, sigma-Aldrich Co., U.S.A.) physiological saline for 10 minutes daily continuously for 8 days using of an ultrasonic nebulizer (“NE-U12”, Omron, Japan).
# One week after the final sensitization, the guinea pigs were allowed to inhale a 2% “OVA” physiological saline for 5 minutes using of the nebulizer. Twenty-four hours and one hour before challenge, the guinea pigs were dosed with metyrapone (10 mg/kg, Sigma-Aldrich Co., U.S.A.) intravenously, and dosed with pyrilamine (10 mg/kg, Sigma-Aldrich Co., U.S.A.) intraperitoneally 30 minutes before challenge.
# Each of the test substances (Compounds of Examples 1 and 4) was formed into a suspension with a 0.5% carboxymethyl cellulose sodium salt (hereinafter referred to as “CMC-Na”) solution at a concentration of 2 mg/mL. One hour before challenge, the guinea pigs were orally dosed with the suspension of the test substance with such a dose so as to be 10 mg/kg. For the control group the medium (a 0.5% CMC-Na solution) was used.
# Twenty-three to twenty-four hours after the antigen challenge, the abdominal aorta of the guinea pigs was cut under intraperitoneal anesthesia with “Nembutal” (50 mg/kg) to remove blood and the chest was opened. A tube was inserted in the bronchus and fixed thereto and through this tube, 5 mL (37° C.) of a physiological saline was injected and sucked therethrough; this procedure was repeated twice (10 mL in total) and the recovered fluid was regarded as the bronchoalveolar lavage fluid (hereinafter referred to as “BALF”). BALF was centrifuged at 1,100 rmp at 4° C. for 10 minutes to obtain a precipitate (a pellet). This pellet was suspended in 1 mL of a physiological saline and a Turkliquid was added thereto and the number of leukocytes per μL was counted with a leukocyte counter plate. Centrifugation was repeated under the above described conditions and rabbit serum was added to the obtained pellet to prepare a smear preparation. After drying, the preparation was subjected to the May Grunwald-Giemsa stain. The number of leukocytes was counted by a microscope and the ratio to the total number of cells of neutrophils, eosinophils, macrophages and lymphocytes was obtained and the number of cells per μL was calculated on the basis of this ratio.
# The obtained test results were shown by mean values and standard deviations and the student's t-test was carried out. […]
# Sprague-Dawley line rats = assay: Toxicity study of two-week repeated-dose oral administration with rats; assay type: in vivo; conditions: male, oral, 0, 125 and 500 mg/kg/day repeatedly for two weeks
# Experimental: In order to study the toxicity by repeated-dose administration of compounds, the compounds were dosed orally to Sprague-Dawley line rats (three male rats per group) with 0, 125 and 500 mg/kg/day (a 0.5 w/v % CMC-Na solution) repeatedly for two weeks.
# [4] = tested on: actively sensitized guinea pigs; assay: Antigen induced airway hypersensitivity, airway reactivity to acetylcholine (PC100ACh); assay type: in vivo, guinea pig; conditions: orally 10 mg/kg 16 hours and 2 hours before the OVA challenge; 22 to 26 hours after challenge
# Text: Bronchial asthma is a disease characterized by bronchial contraction, airway hypersensitivity and infiltration of inflammatory cells into the airway. Airway hypersensitivity is a condition in which the airway sensitively produces a contraction response to various slight stimuli. Particularly, airway hypersensitivity is considered to be a common feature among patients suffering from allergic bronchial asthma. This experimental system in which actively sensitized guinea pigs are used is useful as a airway hypersensitivity model. […]
# The specific airway resistance (sRaw) of wake guinea pigs was measured by the double flow plethysmography with the use of airway resistance measuring equipment (“Pulmos-1”, M.I.P.S., Japan).
# […], from twenty-two to twenty-six hours after the antigen challenge, the guinea pigs were placed in an animal chamber and allowed to inhale a physiological saline and acetylcholine (hereinafter referred to as “ACh”) solutions of 0.0625, 0.125, 0.25, 0.5, 1 and 2 mg/mL , respectively, in the order named, each for one minute until sRaw came to the value at least twice the baseline sRaw (sRaw after the inhalation of the physiological saline). The ACh concentration (hereinafter referred to as “PC100ACh”) necessary for 100% increase in the baseline sRaw was calculated from the concentration of ACh and sRaw-resistance curve. […]
# [5] = 24 hours after antigen challenge, average
SMILES,activity at 10 µM [1],"IAR (% change in sRaw) inhibited by, compared to the control group [2]","LAR (AUC) inhibited by, compared to the control group ([2]; AUC from 4 hours to 8 hours)",change in number of eosinophils compared to the control group [3],change in number of lymphocytes compared to the control group [3],change in number of neutrophils compared to the control group [3],change in total number of cells compared to the control group [3],"number of cells of eosinophils in bronchoalveolar lavage fluid [3, 5]","number of cells of lymphocytes in bronchoalveolar lavage fluid [3, 5]","number of cells of macrophages in bronchoalveolar lavage fluid [3, 5]","number of cells of neutrophils in bronchoalveolar lavage fluid [3, 5]","total number of cells in bronchoalveolar lavage fluid [3, 5]",Results (toxicity findings) (Sprague-Dawley line rats),PC100ACh [4]
"CSc1ccc2c(c1)CC(=O)c1c(O)cc(O)cc1S2 [Example 1, 2-Methylthio-7,9-dihydroxy-10,11-dihydrodibenzo[b,f]thiepin-10-one]",0%,70%,77%,tendency,tendency,tendency,significant decrease,810 µL⁻¹,21 µL⁻¹,"1,872 /μL","1,072 /μL","3,775 /μL",No abnormalities were recognized,–
"C[C@@H]1C[C@H]2[C@@H]3CCC4=CC(=O)C=C[C@]4(C)[C@@]3(F)[C@@H](O)C[C@]2(C)[C@@]1(O)C(=O)CO [dexamethasone, Dexamethasone]",–,–,–,–,–,–,–,–,–,–,–,–,–,1.14 mg/mL
